# Assay results as given in ChEMBL document CHEMBL4251601 (Eur J Med Chem, 2018).
# Experiments:
# [1] = target: Ephrin type-A receptor 2 (Homo sapiens) (UniProt P29317); test: Inhibition of recombinant human GST-tagged EPHA2 cytoplasmic domain expressed in baculovirus expression system at 1 uM by Z'-Lyte assay relative to control
# [2] = target: Cytoplasmic tyrosine-protein kinase BMX (Homo sapiens) (UniProt P51813); test: Inhibition of recombinant full length human His-tagged BMX expressed in baculovirus expression system at 0.1 uM by TR-FRET assay relative to control
# [3] = target: Serine/threonine-protein kinase Chk2 (Homo sapiens) (UniProt O96017); test: Inhibition of recombinant full length human His-tagged CHEK2 expressed in baculovirus expression system at 1 uM by Z'-Lyte assay relative to control
# [4] = target: Dual specificity tyrosine-phosphorylation-regulated kinase 3 (Homo sapiens) (UniProt O43781); test: Inhibition of recombinant full length human GST-tagged DYRK3 expressed in baculovirus expression system at 1 uM by Z'-Lyte assay relative to control
# [5] = target: Angiopoietin-1 receptor (Homo sapiens) (UniProt Q02763); test: Inhibition of recombinant human GST-tagged TIE2 cytoplasmic domain expressed in baculovirus expression system at 1 uM by Z'-Lyte assay relative to control
# [6] = target: Tyrosine-protein kinase JAK2 (Homo sapiens) (UniProt O60674); test: Inhibition of recombinant human GST-tagged JAK2 expressed in baculovirus expression system at 1 uM by TR-FRET assay relative to control
# [7] = target: Proto-oncogene tyrosine-protein kinase Src (Homo sapiens) (UniProt P12931); test: Inhibition of recombinant human full length His-tagged SRC expressed in baculovirus expression system at 0.1 uM by Z'-Lyte assay relative to control
# [8] = target: Mitogen-activated protein kinase kinase kinase 9 (Homo sapiens) (UniProt P80192); test: Inhibition of recombinant human GST-tagged MLK1 expressed in baculovirus expression system at 0.1 uM by Z'-Lyte assay relative to control
# Sequence of Mitogen-activated protein kinase kinase kinase 9 (Homo sapiens) (P80192 whole entry, looked up): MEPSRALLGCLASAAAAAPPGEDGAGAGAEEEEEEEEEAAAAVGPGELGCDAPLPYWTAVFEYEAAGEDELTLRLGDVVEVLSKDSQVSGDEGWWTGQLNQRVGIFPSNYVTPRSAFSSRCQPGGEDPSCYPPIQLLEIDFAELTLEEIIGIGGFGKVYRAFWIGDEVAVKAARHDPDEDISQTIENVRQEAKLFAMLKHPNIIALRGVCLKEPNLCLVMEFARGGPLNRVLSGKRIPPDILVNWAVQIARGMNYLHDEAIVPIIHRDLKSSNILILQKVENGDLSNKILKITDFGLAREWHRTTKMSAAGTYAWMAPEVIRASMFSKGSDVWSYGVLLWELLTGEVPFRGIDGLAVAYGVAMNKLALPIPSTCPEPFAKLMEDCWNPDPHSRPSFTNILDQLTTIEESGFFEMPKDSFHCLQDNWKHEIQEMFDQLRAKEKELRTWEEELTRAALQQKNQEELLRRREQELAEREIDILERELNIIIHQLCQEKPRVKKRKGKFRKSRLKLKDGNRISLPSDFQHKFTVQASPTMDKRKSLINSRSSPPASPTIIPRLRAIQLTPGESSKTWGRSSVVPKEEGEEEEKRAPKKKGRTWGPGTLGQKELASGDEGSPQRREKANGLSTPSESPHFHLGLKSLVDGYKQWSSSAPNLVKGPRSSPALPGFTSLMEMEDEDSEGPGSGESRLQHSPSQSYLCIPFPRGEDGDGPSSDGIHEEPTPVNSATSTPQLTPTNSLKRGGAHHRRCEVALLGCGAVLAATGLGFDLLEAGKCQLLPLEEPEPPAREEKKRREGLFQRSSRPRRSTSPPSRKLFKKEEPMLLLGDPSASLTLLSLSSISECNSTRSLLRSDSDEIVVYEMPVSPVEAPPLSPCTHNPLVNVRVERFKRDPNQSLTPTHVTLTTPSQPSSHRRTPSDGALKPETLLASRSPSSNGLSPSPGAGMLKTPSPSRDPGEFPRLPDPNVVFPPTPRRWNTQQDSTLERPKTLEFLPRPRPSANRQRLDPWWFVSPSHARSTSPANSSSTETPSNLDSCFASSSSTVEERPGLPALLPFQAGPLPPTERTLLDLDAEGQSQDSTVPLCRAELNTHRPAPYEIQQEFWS
# [9] = AUC (0 to infinity) in ICR mouse at 5 mg/kg, po administered as single dose by LC-MS/MS analysis; assay type: ADME, organism-based; design: dose 5 mg/kg, route oral, time infinity; settings: in vivo
# [10] = target: Serine/threonine-protein kinase PAK 2 (Homo sapiens) (UniProt Q13177); test: Inhibition of recombinant human full length GST-tagged PAK2 expressed in baculovirus expression system at 1 uM by Z'-Lyte assay relative to control
# [11] = target: G protein-coupled receptor kinase 6 (Homo sapiens) (UniProt P43250); test: Inhibition of recombinant human full length GST-tagged GRK6 expressed in baculovirus expression system at 1 uM by Z'-Lyte assay relative to control
# [12] = target: Misshapen-like kinase 1 (Homo sapiens) (UniProt Q8N4C8); test: Inhibition of recombinant human GST-tagged MINK (1 to 320 residues) expressed in baculovirus expression system at 1 uM by Z'-Lyte assay relative to control
# [13] = target: Tyrosine-protein kinase JAK1 (Homo sapiens) (UniProt P23458); test: Inhibition of recombinant human GST-tagged JAK1 expressed in baculovirus expression system at 1 uM by TR-FRET assay relative to control
# [14] = AUC (0 to infinity) in ICR mouse at 2 mg/kg, iv administered as single dose by LC-MS/MS analysis; assay type: ADME, organism-based; design: dose 2 mg/kg, time infinity, route intravenous; settings: in vivo
# [15] = target: Receptor tyrosine-protein kinase erbB-2 (Homo sapiens) (UniProt P04626); test: Inhibition of recombinant human His-tagged ERBB2 cytoplasmic domain expressed in baculovirus expression system at 0.1 uM by Z'-Lyte assay relative to control
# Sequence of Receptor tyrosine-protein kinase erbB-2 (Homo sapiens) (P04626 whole entry, the tested form may be a part): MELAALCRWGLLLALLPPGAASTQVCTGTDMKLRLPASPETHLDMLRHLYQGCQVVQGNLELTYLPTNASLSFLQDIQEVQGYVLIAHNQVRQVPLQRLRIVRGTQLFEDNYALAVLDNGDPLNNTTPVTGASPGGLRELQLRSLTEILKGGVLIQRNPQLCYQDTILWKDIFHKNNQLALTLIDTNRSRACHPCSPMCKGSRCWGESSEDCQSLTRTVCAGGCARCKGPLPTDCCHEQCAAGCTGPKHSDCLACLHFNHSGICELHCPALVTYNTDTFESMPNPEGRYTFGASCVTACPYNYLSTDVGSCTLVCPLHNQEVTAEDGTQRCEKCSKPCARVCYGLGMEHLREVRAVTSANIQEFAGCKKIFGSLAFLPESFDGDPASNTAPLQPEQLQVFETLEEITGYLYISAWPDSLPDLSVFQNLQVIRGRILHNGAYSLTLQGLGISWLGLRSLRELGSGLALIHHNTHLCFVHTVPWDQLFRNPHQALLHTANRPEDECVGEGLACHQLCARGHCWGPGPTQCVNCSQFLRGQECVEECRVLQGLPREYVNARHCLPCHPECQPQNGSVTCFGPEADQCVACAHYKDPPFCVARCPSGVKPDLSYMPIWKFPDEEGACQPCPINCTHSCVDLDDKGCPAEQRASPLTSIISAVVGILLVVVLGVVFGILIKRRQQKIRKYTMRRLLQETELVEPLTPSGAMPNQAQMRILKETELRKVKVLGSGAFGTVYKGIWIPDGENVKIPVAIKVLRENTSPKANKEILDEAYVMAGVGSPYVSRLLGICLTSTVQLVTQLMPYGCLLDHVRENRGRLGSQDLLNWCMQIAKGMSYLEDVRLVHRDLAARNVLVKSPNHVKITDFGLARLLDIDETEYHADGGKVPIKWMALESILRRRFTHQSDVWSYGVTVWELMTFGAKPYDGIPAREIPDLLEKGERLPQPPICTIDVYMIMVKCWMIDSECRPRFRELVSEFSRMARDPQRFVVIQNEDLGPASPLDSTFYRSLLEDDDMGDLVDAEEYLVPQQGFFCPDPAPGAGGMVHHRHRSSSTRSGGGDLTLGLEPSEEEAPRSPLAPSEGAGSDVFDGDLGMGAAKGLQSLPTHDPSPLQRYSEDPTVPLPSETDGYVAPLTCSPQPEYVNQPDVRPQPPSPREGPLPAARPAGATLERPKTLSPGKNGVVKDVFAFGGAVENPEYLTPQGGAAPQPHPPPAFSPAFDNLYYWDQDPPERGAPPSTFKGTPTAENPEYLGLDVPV
# U-87 MG = test: Antitumor activity against luciferase-fused human U87MG cells orthotopically xenografted in nude mouse assessed as increase in mouse life span at 6.25 mg/kg, po qd for 5 weeks relative to control; assay type: functional, U-87MG ATCC; settings: 840 h
# [16] = AUC (0 to 24 hrs) in ICR mouse at 5 mg/kg, po administered as single dose by LC-MS/MS analysis; assay type: ADME, organism-based; design: time < 24 hr, dose 5 mg/kg, route oral; settings: in vivo
# [17] = target: Serine/threonine-protein kinase PAK 1 (Homo sapiens) (UniProt Q13153); test: Inhibition of recombinant human full length GST-tagged PAK1 expressed in baculovirus expression system at 0.1 uM by Z'-Lyte assay relative to control
# [18] = target: Receptor tyrosine-protein kinase erbB-2 (Homo sapiens) (UniProt P04626); test: Inhibition of recombinant human His-tagged ERBB2 cytoplasmic domain expressed in baculovirus expression system at 1 uM by Z'-Lyte assay relative to control
# [19] = target: Tyrosine-protein kinase ITK/TSK (Homo sapiens) (UniProt Q08881); test: Inhibition of recombinant full length human GST-tagged ITK expressed in baculovirus expression system at 0.1 uM by TR-FRET assay relative to control
# Sequence of Tyrosine-protein kinase ITK/TSK (Homo sapiens) (Q08881 whole entry): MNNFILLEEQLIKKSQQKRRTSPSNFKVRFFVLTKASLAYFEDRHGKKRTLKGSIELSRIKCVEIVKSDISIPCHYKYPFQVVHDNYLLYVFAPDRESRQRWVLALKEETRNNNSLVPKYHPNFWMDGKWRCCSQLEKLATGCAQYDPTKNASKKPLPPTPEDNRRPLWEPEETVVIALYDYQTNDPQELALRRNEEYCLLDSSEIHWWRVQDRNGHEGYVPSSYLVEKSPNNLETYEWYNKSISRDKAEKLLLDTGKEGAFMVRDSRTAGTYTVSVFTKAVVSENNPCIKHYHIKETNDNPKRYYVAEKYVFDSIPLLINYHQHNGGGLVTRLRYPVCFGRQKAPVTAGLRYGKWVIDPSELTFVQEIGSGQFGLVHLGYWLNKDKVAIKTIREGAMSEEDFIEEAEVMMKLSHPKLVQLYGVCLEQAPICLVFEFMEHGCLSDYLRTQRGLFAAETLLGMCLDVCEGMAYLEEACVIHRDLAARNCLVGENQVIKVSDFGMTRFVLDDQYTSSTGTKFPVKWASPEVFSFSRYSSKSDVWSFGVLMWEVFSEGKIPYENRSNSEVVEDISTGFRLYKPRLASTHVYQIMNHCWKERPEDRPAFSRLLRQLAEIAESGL
# [20] = target: Tyrosine-protein kinase Tec (Homo sapiens) (UniProt P42680); test: Inhibition of recombinant human full length His-tagged TEC expressed in baculovirus expression system at 1 uM by TR-FRET assay relative to control
# [21] = target: Ephrin type-B receptor 2 (Homo sapiens) (UniProt P29323); test: Inhibition of recombinant human GST-tagged EPHB2 cytoplasmic domain (616 to 884 residues) expressed in baculovirus expression system at 1 uM by Z'-Lyte assay relative to control
# Sequence of Ephrin type-B receptor 2 (Homo sapiens) (P29323 whole entry, the tested form may be a part): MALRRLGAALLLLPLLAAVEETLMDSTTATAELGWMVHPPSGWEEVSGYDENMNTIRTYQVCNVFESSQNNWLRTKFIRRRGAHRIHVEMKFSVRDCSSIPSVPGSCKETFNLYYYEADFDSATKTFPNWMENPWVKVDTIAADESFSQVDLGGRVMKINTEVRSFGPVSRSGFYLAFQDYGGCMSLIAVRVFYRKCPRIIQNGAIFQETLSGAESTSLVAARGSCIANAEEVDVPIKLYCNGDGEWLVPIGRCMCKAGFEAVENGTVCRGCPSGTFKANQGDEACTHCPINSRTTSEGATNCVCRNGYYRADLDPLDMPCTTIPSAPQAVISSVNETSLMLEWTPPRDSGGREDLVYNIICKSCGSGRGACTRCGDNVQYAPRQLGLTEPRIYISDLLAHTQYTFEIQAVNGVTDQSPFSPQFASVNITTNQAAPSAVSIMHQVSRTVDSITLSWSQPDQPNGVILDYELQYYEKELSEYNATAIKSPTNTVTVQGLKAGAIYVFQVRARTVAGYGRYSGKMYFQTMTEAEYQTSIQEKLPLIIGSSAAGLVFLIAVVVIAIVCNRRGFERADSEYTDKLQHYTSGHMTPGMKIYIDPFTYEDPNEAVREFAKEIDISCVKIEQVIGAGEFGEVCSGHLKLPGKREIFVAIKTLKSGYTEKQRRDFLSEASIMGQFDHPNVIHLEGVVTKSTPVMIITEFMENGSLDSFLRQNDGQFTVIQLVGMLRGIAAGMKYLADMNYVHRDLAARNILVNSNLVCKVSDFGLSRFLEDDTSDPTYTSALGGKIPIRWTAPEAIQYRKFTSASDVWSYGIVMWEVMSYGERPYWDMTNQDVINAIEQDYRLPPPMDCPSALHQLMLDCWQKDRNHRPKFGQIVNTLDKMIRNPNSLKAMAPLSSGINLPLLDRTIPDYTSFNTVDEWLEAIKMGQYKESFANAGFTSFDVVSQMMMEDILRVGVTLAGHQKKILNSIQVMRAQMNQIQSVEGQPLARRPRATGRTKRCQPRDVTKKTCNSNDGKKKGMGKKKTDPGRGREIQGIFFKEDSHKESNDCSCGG
# [22] = target: Tyrosine-protein kinase SYK (Homo sapiens) (UniProt P43405); test: Inhibition of recombinant human full length GST-tagged SYK expressed in baculovirus expression system at 1 uM by Z'-Lyte assay relative to control
# [23] = target: T1, Cyclin-dependent kinase 4/cyclin D1 (Homo sapiens) (UniProt P11802+P24385); test: Inhibition of recombinant full length human GST-tagged CDK4/Cyclin-D1 expressed in baculovirus expression system at 0.1 uM by TR-FRET assay relative to control
# [24] = target: 3-phosphoinositide-dependent protein kinase 1 (Homo sapiens) (UniProt O15530); test: Inhibition of recombinant human full length His-tagged PDK1 expressed in baculovirus expression system at 1 uM by Z'-Lyte assay relative to control
# [25] = target: Serine/threonine-protein kinase MARK1 (Homo sapiens) (UniProt Q9P0L2); test: Inhibition of recombinant human full length GST-tagged MARK1 expressed in baculovirus expression system at 1 uM by Z'-Lyte assay relative to control
# Sequence of Serine/threonine-protein kinase MARK1 (Homo sapiens) (Q9P0L2 whole entry, looked up): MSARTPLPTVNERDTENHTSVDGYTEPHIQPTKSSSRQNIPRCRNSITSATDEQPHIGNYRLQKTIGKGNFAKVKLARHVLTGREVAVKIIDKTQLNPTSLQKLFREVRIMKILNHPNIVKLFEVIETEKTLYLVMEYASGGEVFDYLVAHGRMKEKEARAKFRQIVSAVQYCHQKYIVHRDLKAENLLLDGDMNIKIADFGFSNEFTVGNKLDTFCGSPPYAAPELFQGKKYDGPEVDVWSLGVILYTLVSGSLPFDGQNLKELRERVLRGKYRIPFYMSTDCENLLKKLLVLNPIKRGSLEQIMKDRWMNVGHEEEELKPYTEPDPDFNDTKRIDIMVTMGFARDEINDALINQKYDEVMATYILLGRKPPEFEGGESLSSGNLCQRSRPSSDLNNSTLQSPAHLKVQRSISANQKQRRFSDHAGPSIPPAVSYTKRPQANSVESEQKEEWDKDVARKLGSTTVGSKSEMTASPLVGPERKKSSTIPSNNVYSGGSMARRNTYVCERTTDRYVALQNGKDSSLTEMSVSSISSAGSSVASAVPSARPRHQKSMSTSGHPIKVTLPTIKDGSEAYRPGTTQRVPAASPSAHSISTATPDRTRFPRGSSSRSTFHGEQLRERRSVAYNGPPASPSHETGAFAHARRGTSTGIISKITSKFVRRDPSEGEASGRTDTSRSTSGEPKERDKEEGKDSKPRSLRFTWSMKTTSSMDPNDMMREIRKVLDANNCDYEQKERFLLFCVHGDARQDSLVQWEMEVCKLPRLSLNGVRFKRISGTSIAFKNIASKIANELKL
# [26] = target: T1, Cyclin-dependent kinase 4/cyclin D1 (Homo sapiens); test: Inhibition of recombinant full length human GST-tagged CDK4/Cyclin-D1 expressed in baculovirus expression system at 1 uM by TR-FRET assay relative to control
# [27] = target: Mitogen-activated protein kinase kinase kinase 9 (Homo sapiens) (UniProt P80192); test: Inhibition of recombinant human GST-tagged MLK1 expressed in baculovirus expression system at 1 uM by Z'-Lyte assay relative to control
# [28] = target: G protein-coupled receptor kinase 5 (Homo sapiens) (UniProt P34947); test: Inhibition of recombinant human full length GST-tagged GRK5 expressed in baculovirus expression system at 1 uM by Z'-Lyte assay relative to control
# [29] = Unbound Cmax in CD-1 mouse plasma at 10 mg/kg, po administered as single dose by LC-MS/MS analysis; assay type: ADME, organism-based; settings: in vivo
# [30] = system: Mitogen-activated protein kinase kinase kinase 7; test: Inhibition of TAK1 (unknown origin) at 0.1 uM by TR-FRET assay relative to control; settings: Homo sapiens
structure (smiles),measurement,setting,value
CC1=Nc2c(F)cc(-c3nc(Nc4ccc(C5CCN(C)CC5)cn4)ncc3F)cc2C12CCCC2 [CROZBACICLIB],inhibition,[1],4%
same,inhibition,[2],9%
same,inhibition,[3],6%
same,inhibition,[4],96%
same,inhibition,[5],-2%
same,inhibition,[6],64%
same,inhibition,[7],3%
same,inhibition,[8],0%
same,AUC(0-inf),[9],2.5 µg·h/mL
same,inhibition,[10],10%
same,inhibition,[11],4%
same,inhibition,[12],90%
same,inhibition,[13],24%
same,AUC(0-inf),[14],1.33 µg·h/mL
same,inhibition,[15],1%
same,ILS at 6.25 mg/kg,U-87 MG,45%
same,AUC(0-t) at 24 h,[16],2.13 µg·h/mL
same,inhibition,[17],-2%
same,inhibition,[18],3%
same,inhibition,[19],-8%
same,inhibition,[20],2%
same,inhibition,[21],3%
same,inhibition,[22],26%
same,inhibition,[23],106%
same,inhibition,[24],4%
same,inhibition,[25],16%
same,inhibition,[26],107%
same,inhibition,[27],59%
same,inhibition,[28],1%
same,fCmax,[29],5.73 ng/mL
same,inhibition,[30],5%
